Source: patent US9232799B2, “N-[(het)arylethyl)] pyrazole(thio)carboxamides and their heterosubstituted analogues” (BAYER INTELLECTUAL PROPERTY GMBH, priority 2010, dated 2016)
Values joined by “and” are separate entries in the source; they are usually repeats but may differ in a detail not shown here. Identical values can stand only once.

Legend:
Leptosphaeria nodorum = experiment: In vivo preventive test on Leptosphaeria nodorum (wheat); settings: 500 ppm of active ingredient, evaluated 7-9 days after inoculation
Source text: One day after this treatment, the plants are inoculated with an aqueous spore suspension of Leptosphaeria nodorum.

Septoria tritici = experiment: In vivo preventive test on Septoria tritici (wheat); settings: 500 ppm of active ingredient, evaluated 21 days after inoculation
Source text: (§1) To test for preventive activity, young plants are sprayed with the preparation of active compound or active compound combination at the stated rate of application.

[1] = logP by HPLC on reversed-phase column (C 18), EEC Directive 79/831 Annex V.A8; assay type: physicochemical
Experimental: In table 1, the logP values were determined in accordance with EEC Directive 79/831 Annex V.A8 by HPLC (High Performance Liquid Chromatography) on a reversed-phase column (C 18), using the method described below: Temperature: 40° C.; […]

Pyrenophora teres = experiment: In vivo preventive test on Pyrenophora teres (barley); settings: 500 ppm of active ingredient, evaluated 7-9 days after inoculation
Source text: One day after this treatment, the plants are inoculated with an aqueous spore suspension of Pyrenophora teres.

aflatoxines production = experiment: microbe, parasite or virus in culture; assay type: cell-based, Aspergillus parasiticus; settings: for inhibition at 50 µM: Aspergillus parasiticus, 168 h, read-out: % Inhibition of Aflatoxin at 50 μM
[2] = system: Fusarium nivale (var. majus); experiment: In vivo preventive test on Fusarium nivale (wheat); settings: 500 ppm of active ingredient, evaluated 5 days after inoculation
Source text: as §1

[3] = system: Blumeria graminis f.sp. hordei; experiment: In vivo preventive test on Blumeria graminis (barley); settings: 500 ppm of active ingredient, evaluated 7 days after inoculation
Source text: as §1

Alternaria solani = experiment: In vivo preventive test on Alternaria solani (tomato); settings: 500 ppm of active ingredient, evaluated 7 days after inoculation
Source text: One day after this treatment, the plants are inoculated with an aqueous spore suspension of Alternaria solani.

Fusarium graminearum = experiment: microbe, parasite or virus in culture; assay type: cell-based; settings: for inhibition at 50 µM: Fusarium graminearum, 168 h, read-out: % Inhibition of fungal growth at 50 μM
Sphaerotheca fuliginea = experiment: In vivo preventive test on Sphaerotheca fuliginea (cucumber); settings: 500 ppm of active ingredient, evaluated 7 days after inoculation
Source text: One day after this treatment, the plants are inoculated with an aqueous spore suspension of Sphaerotheca fuliginea.

Puccinia triticina = experiment: In vivo preventive test on Puccinia triticina (wheat); settings: dose 500 ppm of active ingredient, evaluated 8 days after inoculation
Botrytis cinerea = experiment: In vivo preventive test on Botrytis cinerea (beans); settings: preventive, beans, lesion size 2 days after inoculation; for pest or weed control at 500 ppm: 500 ppm of active ingredient
Source text: To test for preventive activity, young plants are sprayed with the preparation of active compound. After the spray coating has dried on, 2 small pieces of agar covered with growth of Botrytis cinerea are placed on each leaf.

Venturia inaequalis = experiment: In vivo preventive test on Venturia inaequalis (apple scab); settings: 100 ppm of active ingredient, evaluated 10 days after inoculation
Uromyces appendiculatus = experiment: In vivo preventive test on Uromyces appendiculatus (beans); settings: 100 ppm of active ingredient, evaluated 10 days after inoculation
[4] = Botrytis cinerea, 48 h, read-out: Efficacy

| SMILES | Efficacy (Leptosphaeria nodorum) | Efficacy (Septoria tritici) | logP [1] | Efficacy (Pyrenophora teres) | % Inhibition of Aflatoxin at 50 μM (aflatoxines production) | Efficacy [2] | Efficacy [3] | Efficacy (Alternaria solani) | % Inhibition of fungal growth at 50 μM (Fusarium graminearum) | Efficacy (Sphaerotheca fuliginea) | chromatographic logP [1] | inhibition at 50 µM (aflatoxines production) | inhibition at 50 µM (Fusarium graminearum) | Efficacy (Puccinia triticina) | pest or weed control at 500 ppm (Botrytis cinerea; [4]) | Efficacy (Venturia inaequalis) | Efficacy (Botrytis cinerea; 100 ppm of active ingredient) | Efficacy (Uromyces appendiculatus) | pest or weed control at 100 ppm (Botrytis cinerea; Botrytis cinerea, 48 h, 100 ppm of active ingredient, read-out: Efficacy) |
| --- | --- | --- | --- | --- | --- | --- | --- | --- | --- | --- | --- | --- | --- | --- | --- | --- | --- | --- | --- |
| Cn1nc(C(F)F)c(C(=O)NCC(C)(C)c2ccc(Cl)cc2Cl)c1Cl [Example 88] | 90% | 90% | 4.03 | 100% | 100% | 88% | 80% | 100% | 86% | 94% |  |  |  |  |  |  |  |  |  |
| Cn1nc(C(F)F)c(C(=O)NC(C)(C)C(=O)c2ncc(C(F)(F)F)cc2Cl)c1F [Example 194, N-{1-[3-chloro-5-(trifluoromethyl)pyridin-2-yl]-2-methyl-1-oxopropan-2-yl}-3-(difluoromethyl)-5-fluoro-1-methyl-1H-pyrazole-4-carboxamide] | 90% | 100% |  | 100% |  | 100% | 100% | 100% |  | 98% | 3.23 | 100% | 100% |  |  |  |  |  |  |
| CC(Cc1ncc(C(F)(F)F)cc1Cl)N(C(=O)c1cn(C)nc1C(F)F)C1CC1 (stereo not shown) [compound CMP4, N-{1-[3-chloro-5-(trifluoromethyl)pyridin-2-yl]propan-2-yl}-N-cyclopropyl-3-(difluoromethyl)-1-methyl-1H-pyrazole-4-carboxamide, reference compound] |  |  |  |  |  |  |  |  |  |  |  |  |  | 11% | 0% |  |  |  |  |
| Cn1nc(C(F)F)c(C(=O)N(CC(F)(F)c2ccccc2Cl)C2CC2)c1F [Example 44] | 100% | 100% | 3.39 | 100% | 100% | 100% | 100% | 100% | 100% | 100% |  |  |  |  |  | 100% | 99% |  |  |
| Cn1nc(C(F)F)c(C(=O)NC[Si](C)(C)c2ccccc2Cl)c1F [Example 233] | 80% | 90% | 3.48 | 100% | 88% |  |  | 95% | 76% |  |  |  |  | 95% |  |  |  |  |  |
| Cn1nc(C(F)F)c(C(=O)N(CC(F)(F)c2ccc(Cl)cc2Cl)C2CC2)c1F [Example 86] | 100% | 80% | 3.94 | 100% | 100% | 93% | 100% | 100% | 98% | 100% |  |  |  |  |  | 100% | 100% |  |  |
| Cn1nc(C(F)F)c(C(=O)NC2CC2c2ccc(Cl)cc2)c1F (stereo not shown) [Example 224] | 80% |  | 2.61 | 100% | 100% |  |  | 95% | 100% | 84% |  |  |  |  |  | 100% |  | 100% |  |
| Cc1cc(Br)ccc1C(=O)C(C)(C)NC(=O)c1c(C(F)F)nn(C)c1F [Example 133] | 100% | 80% | 3.37 | 100% | 100% | 100% | 100% | 95% | 100% | 100% |  |  |  |  |  | 100% | 100% |  |  |
| CC(Cc1ncc(C(F)(F)F)cc1Cl)NC(=O)c1c(C(F)F)nn(C)c1F (stereo not shown) [Example 190, N-{1-[3-chloro-5-(trifluoromethyl)pyridin-2-yl]propan-2-yl}-3-(difluoromethyl)-5-fluoro-1-methyl-1H-pyrazole-4-carboxamide] |  | 100% |  | 100% |  | 88% | 100% | 100% |  | 100% | 3.08 | 100% | 100% |  | 100% | 100% |  |  | 96% |
| CC(Cc1ccc(Oc2ccccc2)cc1)NC(=O)c1c(C(F)F)nn(C)c1F (stereo not shown) [Example 151] | 70% | 100% | 3.63 | 100% | 100% | 100% | 100% | 95% | 94% | 93% |  |  |  |  |  |  |  |  |  |
| CC(Cc1ccc(Cl)cc1Cl)NC(=O)c1c(C(F)F)nn(C)c1F (stereo not shown) [Example 67] | 90% |  | 3.46 | 100% | 100% |  |  | 100% | 100% | 100% |  |  |  |  |  | 100% | 89% |  |  |
| CC(Cc1ncc(C(F)(F)F)cc1Cl)N(C(=O)c1c(C(F)F)nn(C)c1Cl)C1CC1 (stereo not shown) [Example 189] |  | 70% | 3.96 | 95% | 100% | 100% | 100% | 100% | 90% | 95% |  |  |  | 80% |  |  |  |  |  |
| Cn1nc(C(F)F)c(C(=O)NC(C)(C)C(=O)c2ccc3ccccc3c2)c1F [Example 160] | 70% | 70% | 2.92 | 100% | 100% | 83% | 70% | 95% | 100% | 95% |  |  |  |  |  | 100% | 100% |  |  |
| Cc1nn(C)c(F)c1C(=O)N(C(C)Cc1ncc(C(F)(F)F)cc1Cl)C1CC1 (stereo not shown) [compound CMP5, N-{1-[3-chloro-5-(trifluoromethyl)pyridin-2-yl]propan-2-yl}-N-cyclopropyl-5-fluoro-1,3-dimethyl-1H-pyrazole-4-carboxamide, reference compound] |  |  |  |  |  |  |  |  |  |  |  |  |  | 11% | 0% |  |  |  |  |
| CN(C[Si](C)(C)c1ccccc1)C(=O)c1c(C(F)F)nn(C)c1F [Example 230] | 80% | 100% | 3.23 | 100% | 100% | 83% | 100% | 100% | 100% |  |  |  |  | 95% |  |  |  |  |  |
| Cn1nc(C(F)F)c(C(=O)N(C2CC2)C2CCCC2c2ccccc2Cl)c1F (stereo not shown) [Example 210] | 90% | 100% | 4.31 | 100% | 100% | 86% | 100% | 100% | 100% | 100% |  |  |  |  |  | 100% | 100% |  |  |
| Cn1nc(C(F)F)c(C(=O)N(CC(F)(F)c2cc(Cl)ccc2Cl)C2CC2)c1F [Example 99] | 95% | 100% | 3.85 | 100% |  | 92% | 89% | 95% |  | 98% |  |  |  |  |  |  |  |  |  |
| Cn1nc(C(F)F)c(C(=O)N(C[Si](C)(C)c2ccc3ccccc3c2)C2CC2)c1F [Example 245] | 100% |  | 4.36 | 100% | 100% |  |  | 100% | 100% | 100% |  |  |  | 95% |  |  |  |  |  |
| Cn1nc(C(F)F)c(C(=O)NC[Si](C)(C)c2ccc(Cl)cc2Cl)c1F [Example 240] | 95% |  | 4.06 | 100% and 95% | 100% |  |  | 100% | 84% |  |  |  |  | 100% |  |  |  |  |  |
